The values below come from patent US20070167474A1, “Use of opioid receptor antagonist compounds for the prevention and/or treatment of diseases associated with the target calcineurin” (priority 2004, published 2007).

Counter-ions that a name gives are not always drawn.

For assay [1], the system named is Interleukin-2 (IL-2) production on spleen cells in the MLR. Nature of the assay: Measurement of interleukin-2 production in MLR (mixed lymphocyte reaction). The format is cell-based, mice. Particulars: 48 h culture, ELISA. As for the experimental part: Measurement of Interleukin-2 Production in MLR (Mixed Lymphocyte Reaction)
Measurement of interleukin-2 production in MLR was performed according to the described procedure (Gaveriaux-Ruff et al., J. Pharmacol. Exper. Ther. 298, 1193, 2001).
Splenocytes from mice were cultured with allogeneic stimulators (mitomycin treated BALB/c spleen cells).
A general note: In an ELISA, binding on a coated surface is turned into a signal by an enzyme label.

The next assay has as its target calcineurin (Homo sapiens, UniProt Q08209). Nature of the assay: Calcineurin inhibition assay. Particulars: compound at a concentration of 20 μM. The format is biochemical. As for the experimental part: Calcineurin Inhibition Assays
Calcineurin inhibition assay was performed according to a described procedure (R. Baumgrass et al., J. Biol. Chem. 276, 47914, 2001).
Calcineurin inhibition was measured in a concentration range of 1-50 μM of the test compound at optimal Ca^2+ and calmoduline concentrations. The calcineurin/compound mixtures were equilibrated in the assay buffer (40 mM Tris-HCl, pH 7.5, 100 mM NaCl, 6 mM MgCl2, 0.5 mM ditiothreitol, 1 mM CaCl2, 0.1 mg/ml bovine serum albumin) at 22° C. for 30 min. Calcineurin activity was referenced to the assay lacking the test compounds. The data were computed with the SigmaPlot program.

calcineurin, sequence (P63098 2-170, other chains not shown): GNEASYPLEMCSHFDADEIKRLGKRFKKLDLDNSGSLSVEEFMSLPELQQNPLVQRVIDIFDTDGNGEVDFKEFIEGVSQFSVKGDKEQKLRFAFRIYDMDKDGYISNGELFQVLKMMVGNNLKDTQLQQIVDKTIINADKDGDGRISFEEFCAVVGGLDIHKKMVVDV

In the case of `CCOC12Cc3c([nH]c4ccccc34)C3(C)Oc4c(O)ccc5c4C31CCN(CC1CC1)C2C5` (stereo not drawn) [HS 378, 17-(Cyclopropylmethyl)-6,7-dehydro-4,5α-epoxy-14ethoxy-3-hydroxy-5-methyl-6,7-2′,3′-indolomorphinan Hydrochloride], the values for the IL-2 in assay [1] (2 μM compound), in assay [1] (10 μM compound) and in assay [1] (20 μM compound) were 49 ± 7 pg/mL, 31 ± 3 pg/mL and 22 ± 2 pg/mL, respectively.

As to `Cl.Oc1ccc2c3c1OC1c4[nH]c5ccccc5c4CC4(OCc5ccccc5-c5ccccc5)C(C2)N(CC2CC2)CCC314` (stereo not drawn) [HS 882, 17-(Cyclopropylmethyl)-6,7-didehydro-4,5α-epoxy-14β-[(2-phenylbenzyl)oxy]indolo[2′,3′:6,7]morphinan-3-ol Hydrochloride], at calcineurin, the “Calcineurin activity (% of control)” value is 49 % of control.

As to `CC(C)(C)c1ccc(COC23Cc4c([nH]c5ccccc45)C4Oc5c(O)ccc6c5C42CCN(CC2CC2)C3C6)cc1.Cl` (stereo not drawn) [HS 884, 14β-[(4-tert.-Butylbenzyl)oxy]-17-(cyclopropylmethyl)-6,7-didehydro-4,5α-epoxyindolo[2′,3′:6,7]morphinan-3-ol Hydrochloride], the “Calcineurin activity (% of control)” value at calcineurin is given as 65 % of control.

Take `Oc1ccc2c3c1OC1c4[nH]c5ccccc5c4CC4(OCCCc5ccccc5)C(C2)N(CC2CC2)CCC314` (stereo not drawn) [HS 894, 17-(Cyclopropylmethyl)-6,7-didehydro-4,5α-epoxy-14β-[(3-phenylpropyl)oxy]indolo[2′,3′:6,7]morphinan-3-ol]: the “Calcineurin activity (% of control)” value at calcineurin was 30 % of control.

Take `Oc1ccc2c3c1O[C@H]1c4[nH]c5ccccc5c4C[C@@]4(O)[C@@H](C2)N(CC2CC2)CC[C@]314` [Naltrindole, reference compound]: the values for the IL-2 in assay [1] (3 μM compound), in assay [1] (10 μM compound) and in assay [1] (30 μM compound) were 66 ± 18 pg/mL, 29 ± 6 pg/mL and 19 ± 5 pg/mL, respectively.
